Calls of active or inactive are those of the source. The rule behind the calls is not given here.
Experiments:
[1] = molecular target: T1, Peroxisome proliferator-activated receptor delta (Homo sapiens) (UniProt Q03181); experiment: Transactivation of Gal4-tagged PPARdelta ligand binding domain (unknown origin) expressed in COS7 cells at 30 uM measured after overnight incubation by luciferase reporter gene assay; type: cell-based; conditions: COS-7
T1 sequence (whole entry): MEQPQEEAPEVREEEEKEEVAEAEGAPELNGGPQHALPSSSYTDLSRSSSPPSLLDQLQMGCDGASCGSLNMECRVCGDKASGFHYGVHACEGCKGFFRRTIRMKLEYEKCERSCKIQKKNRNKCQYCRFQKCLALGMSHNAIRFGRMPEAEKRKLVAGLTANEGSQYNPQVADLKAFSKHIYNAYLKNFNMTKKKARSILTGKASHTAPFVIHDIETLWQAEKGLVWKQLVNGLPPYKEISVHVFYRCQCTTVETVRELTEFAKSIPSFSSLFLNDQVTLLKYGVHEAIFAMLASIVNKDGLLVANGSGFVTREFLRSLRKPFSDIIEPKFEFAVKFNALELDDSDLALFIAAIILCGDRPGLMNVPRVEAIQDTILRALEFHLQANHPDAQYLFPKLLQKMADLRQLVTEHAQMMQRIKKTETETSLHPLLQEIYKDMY

[2] = molecular target: T2, Bile acid receptor (Homo sapiens) (UniProt Q96RI1); experiment: Transactivation of human FXR expressed in human HeLa cells at 30 uM incubated for 24 hrs by luciferase reporter gene assay; type: cell-based
T2 sequence (whole entry): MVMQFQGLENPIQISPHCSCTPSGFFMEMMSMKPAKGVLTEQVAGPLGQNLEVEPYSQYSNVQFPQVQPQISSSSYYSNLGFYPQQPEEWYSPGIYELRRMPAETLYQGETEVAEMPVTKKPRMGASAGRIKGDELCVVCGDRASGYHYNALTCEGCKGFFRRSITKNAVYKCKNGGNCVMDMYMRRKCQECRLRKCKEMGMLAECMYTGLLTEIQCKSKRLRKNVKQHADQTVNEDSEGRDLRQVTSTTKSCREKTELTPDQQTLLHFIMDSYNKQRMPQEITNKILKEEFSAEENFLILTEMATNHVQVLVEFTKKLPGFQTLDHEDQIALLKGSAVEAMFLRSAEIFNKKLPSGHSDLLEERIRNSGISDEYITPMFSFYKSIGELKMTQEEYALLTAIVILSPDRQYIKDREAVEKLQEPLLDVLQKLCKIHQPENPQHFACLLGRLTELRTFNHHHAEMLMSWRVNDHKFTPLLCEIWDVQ

[3] = molecular target: T3, Peroxisome proliferator-activated receptor gamma (Homo sapiens) (UniProt P37231); experiment: Transactivation of Gal4-tagged PPARgamma ligand binding domain (unknown origin) expressed in COS7 cells at 30 uM measured after overnight incubation by luciferase reporter gene assay; type: cell-based; conditions: COS-7
T3 sequence (whole entry): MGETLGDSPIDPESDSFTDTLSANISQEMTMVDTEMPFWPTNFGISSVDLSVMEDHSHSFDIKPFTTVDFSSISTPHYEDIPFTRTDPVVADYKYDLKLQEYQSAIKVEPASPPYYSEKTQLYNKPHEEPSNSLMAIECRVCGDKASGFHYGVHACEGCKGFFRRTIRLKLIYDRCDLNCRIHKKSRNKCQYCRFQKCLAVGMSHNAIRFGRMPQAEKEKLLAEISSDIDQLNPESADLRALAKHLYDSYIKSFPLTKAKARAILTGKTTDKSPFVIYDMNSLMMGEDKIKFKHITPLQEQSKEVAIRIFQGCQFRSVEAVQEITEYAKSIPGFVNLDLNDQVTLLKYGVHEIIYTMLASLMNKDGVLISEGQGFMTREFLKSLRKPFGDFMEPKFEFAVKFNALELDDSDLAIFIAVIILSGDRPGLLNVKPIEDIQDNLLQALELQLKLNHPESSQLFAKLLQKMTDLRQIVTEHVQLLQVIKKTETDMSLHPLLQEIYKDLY

[4] = molecular target: T4, Peroxisome proliferator-activated receptor alpha (Homo sapiens) (UniProt Q07869); experiment: Transactivation of Gal4-tagged PPARalpha ligand binding domain (unknown origin) expressed in COS7 cells at 30 uM measured after overnight incubation by luciferase reporter gene assay; type: cell-based; conditions: COS-7
T4 sequence (whole entry): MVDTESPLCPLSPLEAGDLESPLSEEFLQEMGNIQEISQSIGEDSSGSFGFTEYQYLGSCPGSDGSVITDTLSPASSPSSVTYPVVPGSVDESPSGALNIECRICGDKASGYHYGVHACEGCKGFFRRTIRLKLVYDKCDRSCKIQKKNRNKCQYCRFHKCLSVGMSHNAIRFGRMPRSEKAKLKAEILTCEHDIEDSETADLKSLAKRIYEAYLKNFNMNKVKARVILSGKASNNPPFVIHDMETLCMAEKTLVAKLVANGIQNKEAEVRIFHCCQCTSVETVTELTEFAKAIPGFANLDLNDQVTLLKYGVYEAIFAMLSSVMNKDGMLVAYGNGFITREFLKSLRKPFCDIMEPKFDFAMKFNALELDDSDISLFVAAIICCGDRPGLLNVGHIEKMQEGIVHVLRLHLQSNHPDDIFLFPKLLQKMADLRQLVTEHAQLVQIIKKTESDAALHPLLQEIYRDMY

[5] = molecular target: T5, Peroxisome proliferator-activated receptor alpha (Homo sapiens, UniProt Q07869); experiment: Transactivation of Gal4-tagged PPARalpha ligand binding domain (unknown origin) expressed in COS7 cells measured after overnight incubation by luciferase reporter gene assay; type: cell-based, COS-7
T5 sequence (Q07869 whole entry): T4 sequence (whole entry)

[6] = molecular target: T3, Peroxisome proliferator-activated receptor gamma (Homo sapiens); experiment: Transactivation of Gal4-tagged PPARgamma ligand binding domain (unknown origin) expressed in COS7 cells measured after overnight incubation by luciferase reporter gene assay relative to piaglitazone; type: cell-based; conditions: Chlorocebus aethiops; COS-7
[7] = molecular target: T6, Peroxisome proliferator-activated receptor gamma (Homo sapiens, UniProt P37231); experiment: Transactivation of Gal4-tagged PPARgamma ligand binding domain (unknown origin) expressed in COS7 cells measured after overnight incubation by luciferase reporter gene assay; type: cell-based, COS-7
T6 sequence (P37231 whole entry): T3 sequence (whole entry)

[8] = molecular target: T2, Bile acid receptor (Homo sapiens); experiment: Transactivation of human FXR expressed in human HeLa cells incubated for 24 hrs by luciferase reporter gene assay relative to GW4064; type: cell-based
[9] = molecular target: T1, Peroxisome proliferator-activated receptor delta (Homo sapiens); experiment: Transactivation of Gal4-tagged PPARdelta ligand binding domain (unknown origin) expressed in COS7 cells measured after overnight incubation by luciferase reporter gene assay relative to L165,041; type: cell-based; conditions: Chlorocebus aethiops; COS-7
[10] = molecular target: T7, Peroxisome proliferator-activated receptor delta (Homo sapiens, UniProt Q03181); experiment: Transactivation of Gal4-tagged PPARdelta ligand binding domain (unknown origin) expressed in COS7 cells measured after overnight incubation by luciferase reporter gene assay; type: cell-based, COS-7
T7 sequence (Q03181 whole entry): T1 sequence (whole entry)

| Compound | Activity [1] | Activity [2] | Activity [3] | Activity [4] | EC50 [5] [µM] | max activation [6] [%] | EC50 [7] [µM] | max activation [8] [%] | max activation [9] [%] | EC50 [10] [µM] |
| --- | --- | --- | --- | --- | --- | --- | --- | --- | --- | --- |
| CC(C)(C)c1ccc(C(=O)Nc2c(Cl)cccc2C(=O)Nc2cccc(C(=O)O)c2)cc1 | inactive | inactive | inactive | inactive |  |  |  |  |  |  |
| CC(C)(C)c1ccc(C(=O)Nc2ccccc2C(=O)Nc2cccc(C(=O)O)c2)cc1 | inactive |  |  |  | 1.3 | 348 | 3.9 | 9.4 |  |  |
| CC(C)(C)c1ccc(C(=O)Nc2ccccc2C(=O)Nc2cccc(CC(=O)O)c2)cc1 |  |  |  |  | 4.4 | 121 | 6.2 | 26 | 46 | 5.4 |
| Cc1c(NC(=O)c2ccccc2NC(=O)c2ccc(C(C)(C)C)cc2)cccc1C(=O)O | inactive |  |  | inactive |  | 70 | 13.5 | 19 |  |  |
| CC(C)(C)c1ccc(C(=O)Nc2ccccc2C(=O)NCCCC(=O)O)cc1 | inactive |  | inactive | inactive |  |  |  |  |  |  |
| O=C(O)CCCCNC(=O)c1ccccc1NC(=O)c1ccc2ccccc2c1 | inactive |  |  | inactive |  | 269 | 26 |  |  |  |
| CC(C)(C)c1ccc(C(=O)Nc2ccccc2C(=O)Nc2cccc(C#N)c2)cc1 | inactive |  | inactive | inactive |  |  |  | 18 |  |  |
| O=C(O)c1cccc(NC(=O)c2ccccc2NC(=O)c2ccc(Br)cc2)c1 |  |  |  |  | 3.6 | 58 | 4.5 | 14.3 | 44 | 12 |
| O=C(O)CCCNC(=O)c1ccccc1NC(=O)C(c1ccccc1)c1ccccc1 | inactive | inactive | inactive | inactive |  |  |  |  |  |  |
| COc1ccc(NC(=O)c2ccccc2NC(=O)c2ccc(C(C)(C)C)cc2)cc1C(=O)O | inactive |  |  |  | 0.74 | 96 | 4.4 | 19 |  |  |
| CC(C)(C)c1ccc(C(=O)Nc2ccccc2C(=O)Nc2ccc(Cl)c(C(=O)O)c2)cc1 | inactive |  |  |  | 9.1 | 98 | 5.4 | 19 |  |  |
| CC(C)(C)c1ccc(C(=O)Nc2cccc(Cl)c2C(=O)Nc2cccc(C(=O)O)c2)cc1 | inactive | inactive | inactive | inactive |  |  |  |  |  |  |
| O=C(O)CCCNC(=O)c1ccccc1NC(=O)c1cccc(-c2ccccc2)c1 | inactive | inactive |  |  | 10 | 229 | 37 |  |  |  |
| O=C(O)CCCNC(=O)c1ccccc1NC(=O)c1ccc2ccccc2c1 | inactive |  |  | inactive |  | 432 | 18.1 |  |  |  |
| O=C(O)c1cccc(NC(=O)c2ccccc2NC(=O)c2ccc3ccccc3c2)c1 |  |  |  |  | 1.96 | 126 | 5.5 |  | 51 | 4.7 |
| COc1cccc(NC(=O)c2ccccc2NC(=O)c2ccc(C(C)(C)C)cc2)c1 | inactive |  | inactive | inactive |  |  |  | 13 |  |  |
| O=C(O)c1ccc(NC(=O)c2ccccc2NC(=O)c2ccc3ccccc3c2)cc1 | inactive |  |  | inactive |  | 639 | 21 |  |  |  |
| COc1ccc(C(=O)Nc2ccccc2C(=O)Nc2cccc(CC(=O)O)c2)cc1OC | inactive | inactive | inactive | inactive |  |  |  |  |  |  |
| O=C(O)c1cccc(NC(=O)c2ccccc2NC(=O)c2ccc3c(c2)OCO3)c1 | inactive |  |  |  | 19 | 221 | 25 | 12 |  |  |
| CN(C(=O)c1ccc2ccccc2c1)c1ccccc1C(=O)NCCCC(=O)O | inactive | inactive | inactive | inactive |  |  |  |  |  |  |
| N#Cc1ccc(C(=O)Nc2ccccc2C(=O)Nc2cccc(CC(=O)O)c2)cc1 | inactive | inactive | inactive | inactive |  |  |  |  |  |  |
| O=C(O)c1cccc(NC(=O)c2ccccc2NC(=O)c2ccc(C(F)(F)F)cc2)c1 |  |  |  |  | 5.8 | 384 | 8.5 | 26 | 46 | 3.2 |
| O=C(O)CCCNC(=O)c1ccccc1NC(=O)c1ccccc1-c1ccccc1 | inactive | inactive |  | inactive |  | 45 | 23 |  |  |  |
| O=C(O)c1cccc(NC(=O)c2c(Cl)cccc2NC(=O)c2ccc(C(F)(F)F)cc2)c1 | inactive | inactive | inactive | inactive |  |  |  |  |  |  |
| COc1ccc(C(=O)O)cc1NC(=O)c1ccccc1NC(=O)c1ccc(C(C)(C)C)cc1 | inactive |  |  |  | 2.9 | 154 | 4.5 | 15 |  |  |
| CC(C)(C)c1ccc(C(=O)Nc2ccccc2C(=O)Nc2ccc(Br)c(C(=O)O)c2)cc1 | inactive |  |  |  | 4.1 | 82 | 6.3 | 16 |  |  |
| O=C(O)c1cccc(NC(=O)c2ccccc2NC(=O)c2ccc(C(F)(F)F)c(F)c2)c1 |  |  |  |  | 2.2 | 240 | 6.9 | 32 | 37 | 3 |
| O=C(O)CCCNC(=O)c1ccccc1NC(=O)c1ccc(-c2ccccc2)cc1 | inactive | inactive |  | inactive |  | 135 | 13 |  |  |  |

From ChEMBL document CHEMBL3393039, “Anthranilic acid derivatives as nuclear receptor modulators--development of novel PPAR selective and dual PPAR/FXR ligands” (Bioorg Med Chem, 2015)
